PubChem BioAssay AID330 (DTP/NCI, 2004)
“And” between values parts separate entries of the source, which are not always exact repeats. Identical values can stand only once. Toxic doses and inconclusive results are not listed. The calls were made as follows: active = survival T/C of 150% or more; inactive = T/C below 125% in these data.

Test system: P388 leukemia ip, CD2F1 mice, survival T/C
Test: NCI In Vivo Anticancer Drug Screen. Data for tumor model P388 Leukemia (intraperitoneal) in CD2F1 (CDF1) mice
Conditions: endpoint: median survival time, higher = longer survival
Protocol: The antitumor activity of compounds was measured in mice bearing transplantable tumors. Survival or tumor size were measured and the results are expressed as the measurement made in the treated group (T) divided by the measurement made in the vehicle treated control group (C). The tumor model used in this assay is P388 Leukemia (intraperitoneal) in CD2F1 (CDF1) mice

[1] = dose: 50.0 mg/kg/injection, schedule: Q01DX005 (ip), vehicle: saline with Tween-80
[2] = dose: 100.0 mg/kg/injection, schedule: Q01DX005 (ip), vehicle: saline with Tween-80
[3] = dose: 200.0 mg/kg/injection, schedule: Q01DX005 (ip), vehicle: saline with Tween-80
[4] = dose: 60.0 mg/kg/injection, schedule: Q01DX005 (ip), vehicle: saline
[5] = dose: 50.0 mg/kg/injection, schedule: Q01DX005 (ip), vehicle: Klucel (hydroxypropylcellulose) (HPC)
[6] = dose: 100.0 mg/kg/injection, schedule: Q01DX005 (ip), vehicle: Klucel (hydroxypropylcellulose) (HPC)
[7] = dose: 12.5 mg/kg/injection, schedule: Q01DX005 (ip), vehicle: saline with Tween-80
[8] = dose: 120.0 mg/kg/injection, schedule: Q01DX005 (ip), vehicle: saline
[9] = dose: 240.0 mg/kg/injection, schedule: Q01DX005 (ip), vehicle: saline

Measured: T/C

C1=C(c2ccccc2)Oc2ccccc2[P+]1(c1ccccc1)c1ccccc1
inactive: dose: 0.78 mg/kg/injection, schedule: Q01DX005 (ip), vehicle: Klucel (hydroxypropylcellulose) (HPC) 100 % of control | dose: 1.56 mg/kg/injection, schedule: Q01DX005 (ip), vehicle: Klucel (hydroxypropylcellulose) (HPC) 109 % of control | dose: 3.12 mg/kg/injection, schedule: Q01DX005 (ip), vehicle: Klucel (hydroxypropylcellulose) (HPC) 99 % of control

O=C1C2=C(Nc3cc(Cl)ccc3N2)OC1c1ccc(C2OC3=C(Nc4ccc(Cl)cc4N3)C2=O)cc1 (configuration not stated)
inactive: dose: 60.0 mg/kg/injection, schedule: Q01DX005 (ip), vehicle: Klucel (hydroxypropylcellulose) (HPC) 104 % of control | dose: 120.0 mg/kg/injection, schedule: Q01DX005 (ip), vehicle: Klucel (hydroxypropylcellulose) (HPC) 111 % of control | dose: 240.0 mg/kg/injection, schedule: Q01DX005 (ip), vehicle: Klucel (hydroxypropylcellulose) (HPC) 105 % of control

Sc1cn2ccccc2n1
inactive: dose: 50.0 mg/kg/injection, schedule: Q04DX003 (ip), vehicle: saline 105 % of control | dose: 100.0 mg/kg/injection, schedule: Q04DX003 (ip), vehicle: saline 97 % of control | dose: 200.0 mg/kg/injection, schedule: Q04DX003 (ip), vehicle: saline 103 % of control

Cc1cc(C)c(C#N)c(SCC(=O)c2sc3c(C#N)c(C)cc(C)[n+]3c2[O-])n1
inactive: [1] 90 % of control | [2] 90 % of control | [3] 95 % of control

COc1cc(C2c3cc4c(cc3CC3COC(=O)N32)OCO4)cc(OC)c1OC (configuration not stated)
inactive: dose: 3.75 mg/kg/injection, schedule: Q01DX005 (ip), vehicle: Klucel (hydroxypropylcellulose) (HPC) 98 % of control and 92 % of control | dose: 7.5 mg/kg/injection, schedule: Q01DX005 (ip), vehicle: Klucel (hydroxypropylcellulose) (HPC) 88 % of control and 91 % of control and 92 % of control | dose: 15.0 mg/kg/injection, schedule: Q01DX005 (ip), vehicle: Klucel (hydroxypropylcellulose) (HPC) 92 % of control (2×) and 97 % of control

CN(C)c1nc(O)cc(=O)[nH]1
inactive: dose: 50.0 mg/kg/injection, schedule: Q01DX009 (ip), vehicle: saline with Tween-80 106 % of control | dose: 100.0 mg/kg/injection, schedule: Q01DX009 (ip), vehicle: saline with Tween-80 100 % of control | dose: 200.0 mg/kg/injection, schedule: Q01DX009 (ip), vehicle: saline with Tween-80 89 % of control

CC(C)(C)OC(=O)NCCCC(NC(=O)OCc1ccccc1)C(=O)O (configuration not stated)
inactive: [1] 103 % of control | [2] 99 % of control | [3] 95 % of control

COc1ccc(OC)c2c(NCCNCCO)cc(NCCNCCO)nc12
inactive: dose: 15.0 mg/kg/injection, schedule: Q01DX005 (ip), vehicle: saline 100 % of control | dose: 30.0 mg/kg/injection, schedule: Q01DX005 (ip), vehicle: saline 95 % of control | [4] 97 % of control

Cn1cnc([N+](=O)[O-])c1Sc1ncn[nH]1
inactive: dose: 12.5 mg/kg/injection, schedule: Q01DX009 (ip), vehicle: saline 106 % of control | dose: 25.0 mg/kg/injection, schedule: Q01DX009 (ip), vehicle: saline 122 % of control | dose: 100.0 mg/kg/injection, schedule: Q01DX009 (ip), vehicle: saline 122 % of control | dose: 200.0 mg/kg/injection, schedule: Q01DX009 (ip), vehicle: saline 113 % of control

Cc1cc(=O)c2cc3nc(-c4cccnc4)oc3c(Br)c2o1
inactive: [5] 97 % of control | [6] 96 % of control | dose: 200.0 mg/kg/injection, schedule: Q01DX005 (ip), vehicle: Klucel (hydroxypropylcellulose) (HPC) 88 % of control

Fc1ccccc1N/N=c1\nnc2ccccc2s1
inactive: dose: 50.0 mg/kg/injection, schedule: Q04DX002 (ip), vehicle: saline with Tween-80 97 % of control | dose: 100.0 mg/kg/injection, schedule: Q04DX002 (ip), vehicle: saline with Tween-80 93 % of control | dose: 200.0 mg/kg/injection, schedule: Q04DX002 (ip), vehicle: saline with Tween-80 92 % of control

Cc1nnc(N/N=C/c2ccc([N+](=O)[O-])o2)[nH]c1=O
inactive: dose: 6.25 mg/kg/injection, schedule: Q01DX005 (ip), vehicle: saline with Tween-80 101 % of control and 114 % of control | [7] 115 % of control and 118 % of control (2×)

Cn1c(=O)cc(NC2OC(CO)C(O)C(O)C2O)[nH]c1=O (configuration not stated)
inactive: [4] 97 % of control | [8] 97 % of control | [9] 99 % of control

COc1cccc2c1C(=O)c1c(O)c3c(c(O)c1C2=N)C[C@@](O)(C(C)=O)CC3OC1CC(N(Cc2ccccc2)Cc2ccccc2)C(O)C(C)O1 (some centres not stated)
inactive: dose: 12.5 mg/kg/injection, schedule: Q04DX003 (ip), vehicle: saline with Tween-80 102 % of control | dose: 25.0 mg/kg/injection, schedule: Q04DX003 (ip), vehicle: saline with Tween-80 98 % of control | dose: 50.0 mg/kg/injection, schedule: Q04DX003 (ip), vehicle: saline with Tween-80 102 % of control and 123 % of control | dose: 100.0 mg/kg/injection, schedule: Q04DX003 (ip), vehicle: saline with Tween-80 111 % of control and 122 % of control | dose: 200.0 mg/kg/injection, schedule: Q04DX003 (ip), vehicle: saline with Tween-80 124 % of control | dose: 400.0 mg/kg/injection, schedule: Q04DX003 (ip), vehicle: saline with Tween-80 106 % of control

c1ccc2c3c(ccc2c1)Oc1ccc2ccccc2c1C3
inactive: dose: 100.0 mg/kg/injection, schedule: Q01DX001 (ip), vehicle: Klucel (hydroxypropylcellulose) (HPC) 102 % of control | dose: 200.0 mg/kg/injection, schedule: Q01DX001 (ip), vehicle: Klucel (hydroxypropylcellulose) (HPC) 97 % of control | dose: 400.0 mg/kg/injection, schedule: Q01DX001 (ip), vehicle: Klucel (hydroxypropylcellulose) (HPC) 100 % of control

COc1cc(OC)c(C2SCC(=O)N2c2nnc(C(F)(F)F)s2)c(OC)c1 (configuration not stated)
inactive: dose: 50.0 mg/kg/injection, schedule: Q01DX005 (ip), vehicle: saline + Tween-80 + alcohol 109 % of control | dose: 100.0 mg/kg/injection, schedule: Q01DX005 (ip), vehicle: saline + Tween-80 + alcohol 102 % of control | dose: 200.0 mg/kg/injection, schedule: Q01DX005 (ip), vehicle: saline + Tween-80 + alcohol 92 % of control

C/C(=N/NC(=S)NCc1ccccc1)c1ncccn1
inactive: [7] 100 % of control | dose: 25.0 mg/kg/injection, schedule: Q01DX005 (ip), vehicle: saline with Tween-80 100 % of control | [1] 105 % of control and 98 % of control

COc1nc(C(Br)Br)c([N+](=O)[O-])c(N2CCOCC2)n1
inactive: dose: 25.0 mg/kg/injection, schedule: Q01DX005 (ip), vehicle: Klucel (hydroxypropylcellulose) (HPC) 109 % of control | [5] 101 % of control | [6] 87 % of control

Cc1c2oc3c(C)ccc(C(=O)NCCN4CCCCC4)c3nc-2c(C(=O)NCCN2CCCCC2)c(N)c1=O
inactive: dose: 12.5 mg/kg/injection, schedule: Q01DX009 (ip), vehicle: Klucel (hydroxypropylcellulose) (HPC) 98 % of control | dose: 25.0 mg/kg/injection, schedule: Q01DX009 (ip), vehicle: Klucel (hydroxypropylcellulose) (HPC) 117 % of control | dose: 50.0 mg/kg/injection, schedule: Q01DX009 (ip), vehicle: Klucel (hydroxypropylcellulose) (HPC) 115 % of control | dose: 100.0 mg/kg/injection, schedule: Q01DX009 (ip), vehicle: Klucel (hydroxypropylcellulose) (HPC) 110 % of control

CN(C)CC(CN(C)C)C(=O)c1ccc(OC2OC(CO)C(O)C(O)C2O)cc1 (configuration not stated)
inactive: [4] 103 % of control | [8] 99 % of control | [9] 105 % of control

N=C(N=C(C(Cl)(Cl)Cl)C(Cl)(Cl)Cl)N=C(C(Cl)(Cl)Cl)C(Cl)(Cl)Cl
inactive: dose: 60.0 mg/kg/injection, schedule: Q01DX005 (ip), vehicle: saline with Tween-80 100 % of control | dose: 120.0 mg/kg/injection, schedule: Q01DX005 (ip), vehicle: saline with Tween-80 99 % of control | dose: 240.0 mg/kg/injection, schedule: Q01DX005 (ip), vehicle: saline with Tween-80 104 % of control
